In ChEMBL document CHEMBL1150668, “Antimicrobial resveratrol tetramers from the stem bark of Vatica oblongifoliassp. oblongifolia” (2002) one finds MIC data, which are given here for five compounds.

The structures appear in SMILES notation. ≈ marks a conversion by molar mass, not a printed value.

For experiment [1], the system named is Mycolicibacterium smegmatis. Description: Antimicrobial activity against Mycobacterium smegmatis by microdilution method. The format is functional. On the technique in general: Broth dilution looks for growth in wells or tubes with falling amounts of substance.
The subject of a further experiment is Staphylococcus aureus. The experiment is described as follows: Antimicrobial activity against methicillin-resistant Staphylococcus aureus by microdilution method. In kind it is functional.

Take `Oc1ccc([C@@H]2c3c(O)cc(O)cc3[C@@H]3c4c(cc(O)cc4[C@H]2[C@H]2c4cc(O)cc5c4[C@@H](c4cc(O)cc(O)c4[C@@H]2c2ccc(O)cc2)[C@H](c2ccc(O)cc2)O5)O[C@H]3c2ccc(O)cc2)cc1` [HOPEAPHENOL A]: the MIC (usually the least concentration at which growth counts as inhibited) was found to be 50 µg/mL (≈ 55.1 µM) in experiment [1] and 100 µg/mL (≈ 110 µM) in the experiment on Staphylococcus aureus.
In the case of `Oc1ccc([C@H]2c3c(O)cc(O)cc3[C@@H]3c4c(cc(O)cc4[C@H]2[C@H]2c4cc(O)cc5c4[C@@H](c4cc(O)cc(O)c4[C@@H]2c2ccc(O)cc2)[C@H](c2ccc(O)cc2)O5)O[C@H]3c2ccc(O)cc2)cc1` [ISOHOPEAPHENOL A], the minimum inhibitory concentration (MIC) (in experiment [1]; in the experiment on Staphylococcus aureus) was above 100 µg/mL each time.
On to `Oc1ccc([C@@H]2c3c(O)cc(O)cc3[C@@H]3c4c(cc(O)c5c4[C@@H]2[C@H](c2ccc(O)cc2)[C@H]5c2cc(O)cc4c2[C@H](c2cc(O)cc(O)c2)[C@@H](c2ccc(O)cc2)O4)O[C@H]3c2ccc(O)cc2)cc1` [VATICAPHENOL A], for which the minimum inhibitory concentration (MIC) in experiment [1] amounted to 25 µg/mL (≈ 27.6 µM); against Staphylococcus aureus it was 50 µg/mL (≈ 55.1 µM).
Consider `NNC(=O)c1ccncc1` [ISONIAZID], for which the minimal inhibitory concentration (MIC) in experiment [1] was 0.8 µg/mL (≈ 5.83 µM).
With `CN[C@H](CC(C)C)C(=O)N[C@H]1C(=O)N[C@@H](CC(N)=O)C(=O)N[C@H]2C(=O)N[C@H]3C(=O)N[C@H](C(=O)N[C@H](C(=O)O)c4cc(O)cc(O)c4-c4cc3ccc4O)[C@H](O)c3ccc(c(Cl)c3)Oc3cc2cc(c3O[C@@H]2O[C@H](CO)[C@@H](O)[C@H](O)[C@H]2O[C@H]2C[C@](C)(N)[C@H](O)[C@H](C)O2)Oc2ccc(cc2Cl)[C@H]1O` [VANCOMYCIN], inhibition of growth in the experiment with Staphylococcus aureus (MIC) required 0.8 µg/mL (≈ 0.552 µM).
